Measurements: patent publication US6143509A, “Prostate specific antigen peptides and uses thereof” (Abbott Laboratories, priority 1996, dated 2000)

Key:
mAb H164 [1] = assay: Indirect ELISA, binding specificity of mAb H164; settings: FIG. 3C
Method: (§1) An indirect ELISA assay was used to determine the reactivity and specificity of anti-PSA mAbs and pAbs. For the assay, 96 well microtiter plates (Costar, Cambridge, MA) were coated with PSA (0.5 micrograms/well, Abbott Laboratories, in house product, code# 91969, purified from seminal fluid) or peptides (0.1 mg/well) in 0.1 M carbonate-bicarbonate buffer (pH 9.0) overnight at 4° C. The plates were blocked with 1% BSA in PBS buffer (0.008 M sodium phosphate, 0.002M potassium phosphate, 0.14 M sodium chloride and 0.01M potassium chloride, pH 7.4) for 1 hour, then anti-PSA mAbs or pAbs (100 microliters/well) at varying dilutions were added. After incubation for 1 hour at 25° C., the wells were washed with PBS buffer containing 0.5% Tween 20, then 100 microliters/well of alkaline phosphatase-conjugated antibody (goat anti-mouse IgG or goat anti-rabbit IgG--from Pierce, Rockford, IL) at 5000 fold dilution was added and incubation continued for 1-2 hr at 25° C. After washing, 100 microliters/well of p-nitrophenyl phosphate substrate (Pierce, Rockford, Ill.) was added and the absorbance was measured at 405 nm using an automated microtiter plate reader (Molecular Devices Corp. Menlo Oaks, Calif.).

mAb H164 [2] = assay: Competitive immunoassay: inhibition of total PSA specific mAb binding to PSA; settings: FIG. 3A
Method: (§2) (A). Two-site combinations of capture antibody and Europium chelate (Eu)-labeled antibody was used to determine the inhibition of mAbs binding to PSA by the synthetic peptides derived from PSA. Briefly, free PSA (0.05 pmol/well, Wallac, O Y, Turku, Finland) in 0.100 mL of Delfia® buffer (Wallac, O Y) (i.e., a blocking buffer containing 50 mM Tris-HCl (pH 7.75), 0.9% NaCl, 0.05% Na-azide, 0.01% Tween 40, 0.05% bovine-gammaglobulin, 20 μM DTPA, 0.5% BSA, 10 μg/mL native mouse IgG, 5 μg/mL denatured mouse IgG and 20 μg/mL cherry red) was added to microtiter wells coated with the various anti-PSA antibodies being used for capture (1-2 μg/well of antibody) and incubated for 1 hour at 25° C. […] After another four washings, the amount of bound Eu-labeled antibody was determined with time-resolved fluorometry previously described (Pettersson et al., Clin. Chem. 41:1480-88 (1995) & Hemmilia et al., Anal. Biochem. 137:335-43 (1984)).
(§3) (B). […] After another four washings, 100 μl/well of p-nitrophenyl phosphate substrate (Pierce Chemical Co., Rockford, Ill.) was added and the absorbance was measured at 405 nm using an automated microtiter plate reader.

mAb 2C1 = assay: as above; settings: FIG. 3A
Method: as §2, §3

[3] = system: known anti-PSA monoclonal antibodies; assay: Binding to known anti-PSA monoclonal antibodies (summary); settings: summary statement
Method: as §1
(§4) (A). Two-site combinations of capture antibody and Europium chelate (Eu)-labeled antibody was used to determine the inhibition of mAbs binding to PSA by the synthetic peptides derived from PSA. Briefly, free PSA (0.05 pmol/well, Wallac, O Y, Turku, Finland) in 0.100 mL of Delfia® buffer (Wallac, O Y) (i.e., a blocking buffer containing 50 mM Tris-HCl (pH 7.75), 0.9% NaCl, 0.05% Na-azide, 0.01% Tween 40, 0.05% bovine-gammaglobulin, 20 μM DTPA, 0.5% BSA, 10 μg/mL native mouse IgG, 5 μg/mL denatured mouse IgG and 20 μg/mL cherry red) was added to microtiter wells coated with the various anti-PSA antibodies being used for capture (1-2 μg/well of antibody) and incubated for 1 hour at 25° C. (Free or total antibodies may be used.) After washing with Delfia® wash solution, peptides (62,500-1,000,000 molar excess to PSA) in […] Delfia® buffer were added together with the Europium chelate-labeled anti-PSA antibody (0.05 pmol), and incubation was continued for 1 hour at 25°0 C. After another four washings, the amount of bound Eu-labeled antibody was determined with time-resolved fluorometry previously described (Pettersson et al., Clin. Chem. 41:1480-88 (1995) & Hemmilia et al., Anal. Biochem. 137:335-43 (1984)).
as §3

[4] = Immunization of rabbits with peptide coupled to KLH; type: in vivo; settings: FIG. 5 / FIG. 6
Text: Antiserum was elicited by immunizing rabbits with PSA peptide ABT6 coupled to the carrier protein KLH (keyhole limpet hemocyanin) at Bio-Synthesis, Inc. (Lewisville, Tex.) using standard commercially available techniques.
Anti-ABT4 antiserum was elicited by immunizing two rabbits with PSA peptide ABT4 coupled to the carrier protein KLH at Bio-Synthesis, Inc.(Lewisville,Tex.).

[5] = system: rabbit anti-ABT4 antiserum; assay: Indirect ELISA, reactivity and specificity of anti-ABT4 antiserum; type: binding; settings: FIG. 6, relative affinity ABT4 >PSA >hK2a
Method: as §1, with “After incubation for 1 hour at 25° C., the wells were washed with PBS buffer containing 0.5% Tween 20, then 100 microliters/well of alkaline phosphatase-conjugated antibody (goat anti-mouse IgG or goat anti-rabbit IgG--from Pierce, Rockford, IL) at 5000 fold dilution was added and incubation continued for 1-2 hr at 25° C.” left out, “Calif.). […]” for “Calif.).”
The reactivity and specificity of Anti-ABT4 antiserum were evaluated by estimating the relative binding affinities (Wang et al., […] 39:1-5 (1982)) for PSA, PSA peptide ABT4 and hK2 peptide (hK2a) as described in Example I. The indirect ELISA assay format described in Section C-I of Example I was used for these studies and the data are shown in FIG. 6. […]

mAb 2E9 [6] = assay: Indirect ELISA, binding specificity of mAb 2E9; settings: FIG. 2B
Method: as §1

mAb H68 = assay: Competitive immunoassay: inhibition of mAb binding to PSA by synthetic peptides; settings: competitive immunoassay section C-II-A; FIG. 2A
Method: as §4

[7] = system: mAb 9B10 (specific for free PSA); assay: as above
Method: as §4

[8] = system: mAb 5A10 (specific for free PSA); assay: as above; settings: competitive immunoassay section C-II-A; FIG. 2A
Method: as §4

mAb 2E9 [9] = assay: as above; settings: competitive immunoassay section C-II-A; FIG. 2A
Method: as §4

[10] = system: rabbit anti-ABT6 antiserum; assay: Indirect ELISA, reactivity and specificity of anti-ABT6 antiserum; type: binding; settings: FIG. 5
Method: as §1, with “After incubation for 1 hour at 25° C., the wells were washed with PBS buffer containing 0.5% Tween 20, then 100 microliters/well of alkaline phosphatase-conjugated antibody (goat anti-mouse IgG or goat anti-rabbit IgG--from Pierce, Rockford, IL) at 5000 fold dilution was added and incubation continued for 1-2 hr at 25° C.” left out, “Calif.). […]” for “Calif.).”
The reactivity and specificity of antiserum anti-ABT6 was evaluated by estimating the relative binding affinities (Wang et al., Urology 39:1-5 (1982)) for PSA, PSA peptide ABT6 and hK2 peptide hK2b as described in Example I. The indirect ELISA format described in Section C-I of Example 1 was used for these studies and the data are shown in FIG. 5.

mAb 30:5 = assay: Competitive immunoassay: inhibition of mAb binding to PSA by synthetic peptides; settings: inhibition studies
Method: as §4

mAb 6:3 = assay: as above; settings: inhibition studies
Method: as §4

goat anti-PSA antiserum = assay: Direct ELISA with alkaline phosphatase-labeled goat anti-PSA antiserum; type: binding; settings: peptides coated on microtiter plates; FIG. 4
Text: Synthetic peptides were also screened by a direct ELISA assay format which utilized a goat anti-PSA antiserum conjugated to alkaline phosphatase. In particular, peptides were coated on microtiter plates and detected by enzyme-labelled anti-PSA polyclonal antibodies. The goat anti-PSA antiserum was produced by immunization with free PSA. […] In addition to those epitopes identified by mAbs as described above, two new epitopes, ABT2 and ABT7, were identified by the anti-PSA antiserum.

binding of mAb H164 to coated peptide or PSA (mAb H164 [1])	binding to several known anti-PSA monoclonal antibodies [3]	binding of anti-ABT4 antiserum (relative binding affinity) [5]	binding of mAb 2E9 to coated peptide or PSA (mAb 2E9 [6])	binding of anti-ABT6 antiserum (relative binding affinity) [10]	Substance	immunogenicity (ability to elicit antibodies) [4]	further results
bound specifically	specific binding	binds			CLLGRHSLFHPEDTGQC [ABT4]	immunogenic	inhibition of PSA binding to mAb H164 (mAb H164 [2]): 90%; inhibition of PSA binding to mAb 2C1 (mAb 2C1): 80%
	specific binding		specific binding	high affinity	CMSLLKNRFLRPGDDSC [ABT6]	immunogenic	binding to mAb H68 (mAb H68): selectively bound; binding to mAb 9B10 ([7]; competitive immunoassay section C-II-A, FIG. 2A): specific binding; binding to mAb 5A10 [8]: specific binding; binding to mAb 2E9 (mAb 2E9 [9]): selectively bound
	specific binding				CNRFLRPGDDSSC [ABT1, synthetic PSA peptide; short version of ABT6]		inhibition of mAb 30:5 (mAb 30:5): 50%; inhibition of mAb 6:3 (mAb 6:3): 23%; inhibition of mAb 9B10 ([7]; inhibition studies): 40%
	specific binding				CWGSIEPEEFLTPKKLC [ABT2, synthetic PSA peptide]		epitope identified by goat anti-PSA antiserum (goat anti-PSA antiserum): identified
bound specifically		binds	specific binding	high affinity	PSA: Prostate specific antigen, Abbott Laboratories in house product, purified from seminal fluid		
